Assay results published in patent US20030180893A1, “Biotransformation of biologically active compounds made of various classes of chemical substance by means of laccase and manganese peroxidase enzymes” (priority 2000, published 2003).

Assays:
[1] = tested on: multiresistant S. aureus reference strain “Norddeutscher Stamm”; assay: Agar diffusion test according to Burkhardt against multiresistant S. aureus “Norddeutscher Stamm”; assay type: cell-based; conditions: for Size of inhibition halo: starting materials, S. aureus “Nord. Stamm”; for Inhibition halo: S. aureus “Norddeutscher Stamm”
Method: (§1) Methods: An agar diffusion test according to Burkhardt was performed (Burkhardt, F. (Ed.): Mikrobiologische Diagnostik, Georg-Thieme-Verlag Stuttgart, N.Y., 1992, p. 724). The test substances are applied to Sensi-Disc test plates (Becton Dickinson Microbiology Systems, Cockeysville, USA) in graduated concentrations. For testing, Mueller-Hinton II agar was employed in Stacker Petri dishes (Becton Dickinson Microbiology Systems, Cockeysville, USA). S. aureus strain ATCC 6538 was selected as a test strain. The seeding rate of this test strain was selected in such a way that densely arranged, nut non-confluent individual colonies developed after from 16 to 20 h of incubation. After drying the inoculated nutrient substrates, a maximum of 6 test plates is placed onto the agar surface with slight pressing. After 18+2 h of incubation at 36° C., the inhibition halos are measured. For internal quality control, the method was checked with S. aureus ATCC 25923.
Methods: The examination was effected by an agar diffusion test according to the method described in Example 13. As a test germ, the multiresistant S. aureus reference strain “Norddeutscher Stamm” (Smith Kline Beecham) was employed.

[2] = tested on: multiresistant coagulase-negative S. epidermidis strain 99847; assay: Agar diffusion test according to Burkhardt against multiresistant S. epidermidis; assay type: cell-based
Method: as §1
Methods: The examination was effected by an agar diffusion test according to the method described in Example 13. As a test germ, the multiresistant coagulase-negative S. epidermidis strain 99847 isolated from patient material was employed.

[3] = tested on: S. aureus strain ATCC 6538; assay: Agar diffusion test according to Burkhardt against S. aureus ATCC 6538; assay type: cell-based
Method: as §1

[4] = Antimicrobial activity in the preparation examples; conditions: result line of the preparation example; no test germ named

Row | Structure (SMILES) | Size of inhibition halo ([1]; 0.05 mg/disc) [mm] | Size of inhibition halo ([1]; 0.25 mg/disc) [mm] | Size of inhibition halo ([2]; starting materials, 0.25 mg/disc) [mm] | Inhibition halo ([3]; 10 μg per test plate) [mm] | Inhibition halo ([3]; 50 μg per test plate) [mm] | Inhibition halo ([3]; 125 μg per test plate) [mm] | Inhibition halo ([3]; 250 μg per test plate) [mm] | Inhibition halo ([1]; 50 μg) [mm] | Inhibition halo ([1]; 125 μg) [mm] | Inhibition halo ([1]; 250 μg) [mm] | Antimicrobial activity of the coupling product (in words) [4] | Inhibition halo ([2]; 125 μg) [mm] | Inhibition halo ([2]; 250 μg) [mm] | Antimicrobial activity (in words) ([3]; summary of Table 1) | Inhibition halo ([1]; 10 μg) [mm] | Inhibition halo ([2]; 50 μg) [mm]
1 | O=C(NCCO)c1cc(O)ccc1O [2,5-Dihydroxy-N-(2-hydroxyethyl)benzamide, reference compound] | 14 | 22 | 22 | – | – | – | – | – | – | – | – | – | – | – | – | –
2 | CC1(C)SC2C(Nc3cc(O)c(C(=O)NCCO)cc3O)C(=O)N2C1C(=O)O (stereo not shown) [Example 1] | – | – | – | 12 | 18 | 22 | 24 | 16 | 18 | 20 | antimicrobially active | – | – | – | – | –
3 | CC1=C(C(=O)O)N2C(=O)C(Nc3cc(O)c(C(=O)NCCO)cc3O)C2SC1 (stereo not shown) [Example 3] | – | – | – | – | 18 | 22 | 24 | 20 | 22 | 24 | antimicrobially active | 24 | 20 | – | – | –
4 | CC1(C)SC2C(NC(=O)C(Nc3c(O)ccc(O)c3C(=O)NCCO)c3ccc(O)cc3)C(=O)N2C1C(=O)O (stereo not shown) [Example 4] | – | – | – | >30 | >30 | >30 | >30 | 18 | 22 | 24 | antimicrobially active | 28 | 30 | highest antimicrobial activity | 10 | 18
5 | CC1(C)SC2C(NC(=O)C(Nc3cc(O)c(C(=O)NCCO)cc3O)c3ccccc3)C(=O)N2C1C(=O)O (stereo not shown) [Example 5] | – | – | – | – | – | – | – | – | – | – | antimicrobially active | – | – | – | – | –
